Measurements from patent US5223482A, “Recombinant Alzheimer's protease inhibitory amyloid protein and method of use” (Scios Nova Inc., priority 1989, dated 1993).
pKi: −log10 of the molar value. Where no end group is shown, it is not given here.

Columns and labels:
Assay type in all cases: biochemical
chymotrypsin = assay: Kinetics of inhibition (Ki) of the protease inhibitor for chymotrypsin
Protocol: (§1) The analogs of the present protease inhibitors are constructed from oligonucleotides containing the specific codons encoding the desired amino acid at this location, using site-specific mutagenesis techniques as are known in the art. The desired activities of the analogs thus constructed are assayed using the appropriate enzyme, for example, either trypsin, chymotrypsin or elastase as the standard in one of the respective assays using, for example, the trypsin or chymotrypsin assays described in Tan, N. H. Biochem (1977) 16:1531-1541 and the elastase assays Barrett, A. J. (1981) in Methods in Enzymology vol. 80, L. Lorand ed., Academic Press, New York. The activity of the analogs may be compared with that of the natural protease inhibitor of the invention.

trypsin [1] = assay: Kinetics of inhibition (Ki) of the protease inhibitor for trypsin
Protocol: as §1

trypsin [2] = assay: Trypsin inhibition assay (hydrolysis of N-benzoyl-D-arginine-p-nitroaniline, release of pNA); settings: HPLC peaks of the trypsin affinity column eluate
Protocol: All 8 oligonucleotides encoding either the phoA or ompA fusions were mixed together and treated with ligase. […] The ligated constructs were then ligated into the NdeI-HindIII sites of the vector pTRP233. The ligated vectors were transfected into E. coli strain MC1061 and Amp^R colonies selected. […] Miniprep DNA was used to transfect strains W3110 and JE5505. Small scale cultures of each of the three strains were grown and induced with IAA overnight. Culture supernatants were examined for trypsin inhibitory acitvity. Trypsin is assayed for its ability to hydrolyze the synthetic substrate N-benzoyl-D-arginine-p-nitroaniline to release p-nitroaniline (pNA). The release of pNA as a function of time is easily monitored in a spectrophotomer and can be quantitated to measure trypsin activity. The inhibitor is detected in this assay by virtue of its ability to bind to trypsin and prevent hydrolysis of the substrate by trypsin. Inhibitory activity wad detected in the culture medium for both ompA and phoA constructs in JE5505 but not W3110 or MC1601. Expression levels appeared to be higher with the phoA construct and so only this construct was used for subsequent experiments.

natural protease inhibitor: 57 amino acid Kunitz-type protease inhibitor, residues 289 through 345 of the λAPCP168i4 β-amyloid-related protein (EVCSEQAETGPCRAMISRWYFDVTEGKCAPFFYGGCGGNRNNFDTEEYCMAVCGSAM; Kunitz inhibitor domain; UniProt P05067 289-345, looked up, fragment)
pKi (chymotrypsin): 8.07
pKi (trypsin [1]): 8.52

peak 4: major HPLC peak of the purified inhibitor; mass consistent with full length A4i with 3 disulfide bridges (EVCSEQAETGPCRAMISRWYFDVTEGKCAPFFYGGCGGNRNNFDTEEYCMAVCGSAM; disulfide (positions not given here); UniProt P05067 289-345, looked up, fragment)
activity in the trypsin inhibition assay (trypsin [2]): active
